Reference: patent publication US20240091310A1, “COMPOSITIONS AND METHODS USEFUL FOR THE PREVENTION AND/OR TREATMENT OF DISEASE IN MAMMALS” (VIRO-GEN (PTY) LTD, priority 2020, published 2024)

Experiments:
HIV = conditions: as previously disclosed; cited from earlier work
[1] = Transdermal absorption of liquid DMF; format: in vivo, human; conditions: two patches of diameter 9 cm, total skin surface area 127 cm^2
Protocol: For transdermal administration of a polar compound, the rate of absorption is determined by the skin of the subject.
Accordingly, the desired rate of absorption may be achieved by controlling the surface area of the skin exposed to the drug, as by determining the area of each patch and the number of patches applied to the skin.

HIV-1 [2] = assay: Follow-up HIV PCR and CD4 count after transdermal DMF study; format: in vivo, human
From the text: Individuals, the study of whom generated the teachings of ZA 1998/064649, despite being infected with HIV have maintained a CD4^+ T-cell count above 350 for more than 20 years without being on antiretroviral treatment. These individuals are referred to herein as Long-term Non-Progressors (“LTNP”).
One such individual, had initially presented with HIV PCR detecting 63.298 HIV-1 RNA copies/ml of plasma in December 1996.

HIV-1 [3] = conditions: transdermal patch containing DMF; cited from earlier work

| SMILES | inhibition of HIV production (HIV) | absorption rate [1] | HIV-1 RNA copies/ml of plasma by HIV PCR (HIV-1 [2]; one LTNP individual, follow-up March 2006 after transdermal DMF study, initially 63.298 copies/ml in December 1996) [copies/ml] | CD4 Count (HIV-1 [2]; same individual, follow-up 2011) [µL⁻¹] | HIV-1 RNA copies/ml of plasma by HIV PCR (HIV-1 [2]; same individual, further follow-up 2011) | outcome of treatment of patients infected with HIV-1 (HIV-1 [3]) |
| --- | --- | --- | --- | --- | --- | --- |
| CN(C)C=O [DMF, N,N-dimethylformamide] | powerful inhibitors of HIV production | about 1.2 g of DMF per hour | < 40 | 920 | No | promising results |
| C[S+](C)[O-] [DMSO, Diemthylsulfoxide] | powerful inhibitors of HIV production |  |  |  |  |  |
